According to US20220288052A1, “COMPOUND FOR COMBINATION TREATMENT” (priority 2019, published 2022):

Experiments:
[1] = test system: C57 mice; experiment: Mouse tail suspension test (mTST); type: in vivo; details: i.p. 30 min
Protocol: C57 males, 25-28 g, Taconic, 16/8-06. Mice acclimatized to ground floor 5 days before testing. Mice saline injected once a day twice before test day. 22° C., N=7-8.

[2] = Metabolic stability in liver microsomes, rat; type: in vitro ADME
Protocol: The metabolic stability of compound (I) was tested in liver microsomes from all in house available species at 1 and 5 μM. One metabolite of 16 mass units higher than parent, was found in all incubations, except with human liver microsomes.

[3] = test system: nialamide pre-treated mice; experiment: Nialamide-induced 5-HT syndrome (m5-HT); type: in vivo, mouse
Protocol: 50 mg/kg nialamide s.c. t=120 min. Compound (I) p.o. t=0. n=4.
Compound (I) was tested in a classical test often used to measure the ability of a compound to block the reuptake of 5-HT in vivo: nialamide-induced 5-HT syndrome (m5-HT). In addition, compound (I) was tested in a locomotor activity paradigm (mLA) as a measure of its ability to block the reuptake of DA and therefore induce motility. It is generally accepted that >60% DA transporter blockade is needed to induce increased motility in this test.

[4] = 14-day repeat-dose study in Wistar rats; type: in vivo, rat
Protocol: In a 14-day repeat-dose study 4 groups of 4 male and 4 female Wistar rats were treated daily with either compound (I) at doses of 5, 10 and 15 mg/kg s.c. (Groups 2, 3 and 4), or vehicle, 5% glucose s.c. (Group 1). A satellite group 25 mg/kg s.c. (group5) was conducted accordingly to increase the exposure and efficacy.

[5] = target: 5-HT transporter (Rattus norvegicus, UniProt P31652); experiment: ^3H-uptake rat, 5-HT transporter; type: biochemical
Sequence of 5-HT transporter (P31652 whole entry): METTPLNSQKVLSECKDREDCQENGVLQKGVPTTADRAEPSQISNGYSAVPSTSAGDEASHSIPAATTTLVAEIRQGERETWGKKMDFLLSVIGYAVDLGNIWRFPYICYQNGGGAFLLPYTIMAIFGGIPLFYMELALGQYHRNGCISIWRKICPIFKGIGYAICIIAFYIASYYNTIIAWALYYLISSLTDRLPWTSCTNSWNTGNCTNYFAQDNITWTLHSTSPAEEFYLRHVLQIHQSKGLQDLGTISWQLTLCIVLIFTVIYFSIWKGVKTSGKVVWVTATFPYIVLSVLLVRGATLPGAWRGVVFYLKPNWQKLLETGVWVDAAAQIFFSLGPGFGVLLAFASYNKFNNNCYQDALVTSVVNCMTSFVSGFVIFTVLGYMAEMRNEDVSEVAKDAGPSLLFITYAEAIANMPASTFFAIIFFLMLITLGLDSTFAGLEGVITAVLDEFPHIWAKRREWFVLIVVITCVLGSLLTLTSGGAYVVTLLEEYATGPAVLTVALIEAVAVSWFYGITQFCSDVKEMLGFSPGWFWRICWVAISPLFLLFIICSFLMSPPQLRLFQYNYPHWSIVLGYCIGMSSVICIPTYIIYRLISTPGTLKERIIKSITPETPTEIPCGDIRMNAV
Source text: Compound (I) has been characterized as a monoamine reuptake inhibitor, based on the profile in a series of functional assays (Table 2).

[6] = target: Nicotinic α3β4 (Homo sapiens, UniProt P30926+P32297); experiment: Selectivity screen, Nicotinic α3β4; type: binding
Sequence of Nicotinic α3β4 (P32297 32-505): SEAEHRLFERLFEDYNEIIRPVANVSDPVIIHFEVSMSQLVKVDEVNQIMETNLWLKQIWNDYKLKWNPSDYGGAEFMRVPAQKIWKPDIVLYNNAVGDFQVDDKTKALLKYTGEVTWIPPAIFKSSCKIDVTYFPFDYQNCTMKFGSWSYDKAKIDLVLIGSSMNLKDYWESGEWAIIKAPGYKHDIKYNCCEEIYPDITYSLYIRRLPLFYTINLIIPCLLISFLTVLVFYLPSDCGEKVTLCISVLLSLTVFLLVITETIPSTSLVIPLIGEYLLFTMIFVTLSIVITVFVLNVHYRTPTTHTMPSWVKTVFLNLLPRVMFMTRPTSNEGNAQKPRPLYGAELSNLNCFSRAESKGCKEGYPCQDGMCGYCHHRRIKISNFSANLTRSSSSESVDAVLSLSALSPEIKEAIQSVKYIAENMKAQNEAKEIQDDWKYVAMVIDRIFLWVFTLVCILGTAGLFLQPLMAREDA
Sequence of Nicotinic α3β4 (P30926 22-498): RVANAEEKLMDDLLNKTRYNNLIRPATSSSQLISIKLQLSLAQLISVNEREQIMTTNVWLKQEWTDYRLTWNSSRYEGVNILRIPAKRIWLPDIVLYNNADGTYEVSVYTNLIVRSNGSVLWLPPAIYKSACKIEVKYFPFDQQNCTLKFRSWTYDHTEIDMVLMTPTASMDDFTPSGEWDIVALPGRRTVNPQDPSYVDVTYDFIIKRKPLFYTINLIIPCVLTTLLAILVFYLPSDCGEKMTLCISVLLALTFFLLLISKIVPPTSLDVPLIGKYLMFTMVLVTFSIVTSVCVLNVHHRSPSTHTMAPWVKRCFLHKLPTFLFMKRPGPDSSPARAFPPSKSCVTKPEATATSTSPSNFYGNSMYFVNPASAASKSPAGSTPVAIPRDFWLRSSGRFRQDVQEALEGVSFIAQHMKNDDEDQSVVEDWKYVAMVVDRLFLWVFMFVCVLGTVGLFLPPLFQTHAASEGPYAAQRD

[7] = target: T1, DA transporter (Mus musculus, UniProt Q61327); experiment: In vivo ^3H-WIN 35.428 binding (DA transporter occupancy), PD/PK
T1 construct: in vivo DAT transporter occupancy (open bars) in mouse striatum; from tissue; host or cells: mouse striatum (in vivo; C57 mice in the MPTP model)
T1 sequence (Q61327 whole entry): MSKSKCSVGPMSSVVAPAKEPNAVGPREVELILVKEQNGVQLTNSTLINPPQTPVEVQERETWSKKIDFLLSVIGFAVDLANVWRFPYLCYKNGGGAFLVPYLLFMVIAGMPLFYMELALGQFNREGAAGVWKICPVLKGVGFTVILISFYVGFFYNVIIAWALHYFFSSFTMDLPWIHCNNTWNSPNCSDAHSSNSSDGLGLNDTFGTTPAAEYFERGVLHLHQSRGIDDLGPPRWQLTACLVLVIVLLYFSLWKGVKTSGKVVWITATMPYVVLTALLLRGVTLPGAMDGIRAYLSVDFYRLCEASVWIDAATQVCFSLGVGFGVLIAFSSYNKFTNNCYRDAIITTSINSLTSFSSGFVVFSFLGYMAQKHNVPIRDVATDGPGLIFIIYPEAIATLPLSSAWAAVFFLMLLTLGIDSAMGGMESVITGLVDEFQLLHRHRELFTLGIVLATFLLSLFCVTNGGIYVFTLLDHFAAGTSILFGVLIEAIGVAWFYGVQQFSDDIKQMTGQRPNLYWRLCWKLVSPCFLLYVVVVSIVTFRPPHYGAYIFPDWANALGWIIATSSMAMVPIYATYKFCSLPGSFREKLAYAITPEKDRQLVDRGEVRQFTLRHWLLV
Protocol: The relationship between brain concentrations of compound (I) and transporter occupancy was investigated in in vivo ^3H-WIN 35.428 binding in mice. A relationship between increasing plasma and brain concentrations with each increase in dose level, and a corresponding increase in CNS in vivo DA transporter occupancy 90 min post administration. In both cases there was a close correlation between plasma and brain concentrations and in vivo transporter occupancy in brain, the brain to plasma ratio was approximately 4 at 3, 10 and 30 mg/kg (FIG. 1). […] The inhibition of in vivo WIN binding was measured 90 min after p.o. administration of the compound.
(§1) The in vivo receptor occupancy (RO %) of compound (I) was calculated at the MED values (DOSE) in mFST and in the mouse motility test using the formula RO % (estimated)=DOSE 100/(ED50+DOSE). The calculations were based on ED50 values in ex vivo uptake of 5-HT and NA and WIN in vivo binding.
It is known that the critical factor for psychomimetic side effects of a dopaminergic drug is the speed of inhibition of the DA transporter rather than the increase in DA release per se.

[8] = target: T2, NA transporter (Mus musculus, UniProt O55192); experiment: Ex vivo NA uptake in mice
T2 construct: from tissue; host or cells: tissue of dosed animals (ex vivo)
T2 sequence (O55192 whole entry): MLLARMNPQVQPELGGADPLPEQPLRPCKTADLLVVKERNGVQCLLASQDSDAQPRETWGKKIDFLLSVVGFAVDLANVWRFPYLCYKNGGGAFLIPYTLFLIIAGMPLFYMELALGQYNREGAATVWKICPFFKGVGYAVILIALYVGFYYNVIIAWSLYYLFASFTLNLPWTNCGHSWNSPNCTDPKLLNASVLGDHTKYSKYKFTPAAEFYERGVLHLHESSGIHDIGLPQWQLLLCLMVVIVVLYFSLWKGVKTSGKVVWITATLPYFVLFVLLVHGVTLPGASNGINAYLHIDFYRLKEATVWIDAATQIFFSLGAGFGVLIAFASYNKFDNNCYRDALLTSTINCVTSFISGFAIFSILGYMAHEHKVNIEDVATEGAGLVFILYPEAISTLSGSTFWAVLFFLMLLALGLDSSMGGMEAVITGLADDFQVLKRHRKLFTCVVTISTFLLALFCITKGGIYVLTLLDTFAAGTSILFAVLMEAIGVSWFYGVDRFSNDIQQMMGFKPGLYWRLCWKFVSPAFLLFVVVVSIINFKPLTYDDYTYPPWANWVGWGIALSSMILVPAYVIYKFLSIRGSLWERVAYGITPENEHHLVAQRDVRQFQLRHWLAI
Protocol: as §1

[9] = target: CYP 3A4 (Homo sapiens, UniProt P08684); experiment: CYP450 inhibition, cocktail of selective substrates, 3A4; type: in vitro ADME; details: CYP 3A4, Midazolam to 1′-hydroxymidazolam; read-out: IC50 of compound (I)
Sequence of CYP 3A4 (P08684 whole entry): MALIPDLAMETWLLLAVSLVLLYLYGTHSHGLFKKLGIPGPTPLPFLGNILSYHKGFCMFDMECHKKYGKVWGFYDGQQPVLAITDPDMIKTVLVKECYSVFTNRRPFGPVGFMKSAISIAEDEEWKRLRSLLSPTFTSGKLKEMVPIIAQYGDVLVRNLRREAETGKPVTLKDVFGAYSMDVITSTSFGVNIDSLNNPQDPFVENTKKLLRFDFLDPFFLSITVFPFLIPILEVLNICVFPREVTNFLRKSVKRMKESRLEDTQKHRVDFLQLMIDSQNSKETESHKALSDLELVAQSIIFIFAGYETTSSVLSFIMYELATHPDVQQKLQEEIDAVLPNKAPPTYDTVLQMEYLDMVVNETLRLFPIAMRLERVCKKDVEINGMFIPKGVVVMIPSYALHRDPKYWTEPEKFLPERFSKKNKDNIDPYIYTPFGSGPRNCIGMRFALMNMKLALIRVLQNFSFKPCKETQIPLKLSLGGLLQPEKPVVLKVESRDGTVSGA
Protocol: (§2) Compound (I) was tested for CYP450 inhibition using a cocktail of selective substrates. […] This might be addressed later in a clinical study.

[10] = target: DAT (Homo sapiens, UniProt Q01959); experiment: MDS LeadProfilingScreen, DAT; type: binding
Sequence of DAT (Q01959 whole entry): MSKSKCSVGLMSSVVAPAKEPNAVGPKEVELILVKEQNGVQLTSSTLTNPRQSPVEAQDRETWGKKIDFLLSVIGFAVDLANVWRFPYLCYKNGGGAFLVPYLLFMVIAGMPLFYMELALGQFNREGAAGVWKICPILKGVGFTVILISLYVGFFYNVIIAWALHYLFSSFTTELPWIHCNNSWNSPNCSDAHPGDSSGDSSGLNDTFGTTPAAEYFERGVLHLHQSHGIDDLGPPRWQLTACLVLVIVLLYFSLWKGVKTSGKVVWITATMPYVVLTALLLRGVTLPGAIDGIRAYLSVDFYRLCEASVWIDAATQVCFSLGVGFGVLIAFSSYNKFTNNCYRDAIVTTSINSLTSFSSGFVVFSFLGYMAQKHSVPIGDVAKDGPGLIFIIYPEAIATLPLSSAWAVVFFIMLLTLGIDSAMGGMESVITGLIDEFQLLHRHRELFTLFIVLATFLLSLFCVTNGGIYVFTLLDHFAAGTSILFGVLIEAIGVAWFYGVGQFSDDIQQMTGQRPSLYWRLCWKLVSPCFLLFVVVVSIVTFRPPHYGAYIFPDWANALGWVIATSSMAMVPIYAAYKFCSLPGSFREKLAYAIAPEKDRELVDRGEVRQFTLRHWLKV

[11] = target: CYP1A2 (Homo sapiens, UniProt P05177); experiment: CYP450 inhibition, cocktail of selective substrates, 1A2; type: in vitro ADME; details: CYP 1A2, Phenacetin to Paracetamol; read-out: IC50 of compound (I)
Sequence of CYP1A2 (P05177 whole entry): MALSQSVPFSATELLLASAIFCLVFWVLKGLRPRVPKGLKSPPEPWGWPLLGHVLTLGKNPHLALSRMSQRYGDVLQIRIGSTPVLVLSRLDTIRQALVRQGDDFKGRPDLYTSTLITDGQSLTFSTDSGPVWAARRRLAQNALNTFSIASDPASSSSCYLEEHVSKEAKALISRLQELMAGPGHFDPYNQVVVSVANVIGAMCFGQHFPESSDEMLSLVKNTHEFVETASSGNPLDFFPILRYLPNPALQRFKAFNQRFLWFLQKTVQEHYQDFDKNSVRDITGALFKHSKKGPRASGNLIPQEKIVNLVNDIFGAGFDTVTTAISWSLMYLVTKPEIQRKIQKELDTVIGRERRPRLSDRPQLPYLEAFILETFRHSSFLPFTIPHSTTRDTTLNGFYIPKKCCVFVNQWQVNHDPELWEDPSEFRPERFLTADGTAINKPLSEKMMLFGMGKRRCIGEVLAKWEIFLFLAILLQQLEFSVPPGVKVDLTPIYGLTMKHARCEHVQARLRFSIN
Protocol: as §2

[12] = test system: rat corpus cavernosum strips; experiment: Corpus cavernosum contractility
Protocol: FIG. 29: Original traces showing the effect of compound (I) on resting tone in rat corpus cavernosum strips. Increasing concentrations (10^−9-3×10^−5 M) of compound (I) were added. Compound (I) induced small relaxations, while at the highest concentration (3×10^−5 M) contraction was observed occasionally (lower trace).
FIG. 30: Average results showing the effect of compound (I) on resting tone in rat corpus cavernosum strips. Increasing concentrations (10^−9-3×10^−5 M) of compound (I) were added. Compound (I) induced small relaxations, while at the highest concentration (3×10^−5 M) contraction was observed occasionally (lower trace). Compound (I) responses were obtained in the presence of vehicle, sildenafil (10^−7 M), guanethidine (10^−5 M), and L-NOARG (10^−4 M). Results are means±s.e. mean of preparations from 5 rats.
FIG. 31: Original traces showing relaxations to compound (I) in rat corpus cavernosum strips contracted with phenylephrine (Phe). Representative traces show compound (I) relaxation in the presence of vehicle, guanethidine (10^−5 M), L-NOARG (10^−4 M), sildenafil (10^−7 M), in phenylephrine-contracted preparations.
FIG. 32: Average relaxations induced by compound (I) in rat corpus cavernosum strips. In phenylephrine-contracted preparations, increasing concentrations (10^−9-3×10^−5 M) of compound (I). […]

[13] = 15 mg/kg s.c. 14 days (Group 4)
[14] = 25 mg/kg s.c. 14 days (Group 5)
[15] = estimated at MED in mFST (NMRI mice), DOSE 1 mg/kg
[16] = estimated at MED in mMotility, DOSE 10 mg/kg

## O=c1ccc2ccc(O[C@@H]3C[C@H]4CC[C@@H](C3)N4)cc2o1 [Compound (I), exo-7-(8-aza-bicyclo[3.2.1]oct-3-yloxy)-chromen-2-one]
[1]
  MED: <5 mg/kg
[2]
  Stability at 1 μM: 40%
  Stability at 5 μM: 61%
[3]; m5-HT, p.o. 0 min
  MED: 0.1 mg/kg
[3]; nialamide pre-treated mice
  Potency in 5-HT syndrome relative to the reference compounds tested: 100 times
[4]; [13]
  Activity: increased activity in both males and females
  Body weight gain: No changes in body weight gain were observed in the female rats, but a tendency to increased bodyweight in the group 4 males
  Relative liver weights: reduced in group 4 females and increased in group 4 males
[4]; [14]
  Activity: increased activity in both male and female
  Body weight: minimal decreased body weight
  Liver weight: No changes in liver weight
[4]; s.c. 14 days
  Macroscopic findings at termination: no treatment-related macroscopic findings
[5]
  IC50: 0.00045 µM
[6]
  Ki: 5.05 µM
[6]; Nicotinic acetylcholine Ki versus hDAT Ki 155 nM
  Separation to transporter hDAT: x32
[6]; Nicotinic acetylcholine Ki versus hNET Ki 594 nM
  Separation to transporter hNET: x8.5
[6]; Nicotinic α3β4, Human, 10 μM
  inhibition at 10 µM: 57%
[7]; [15]
  DA RO %: 9%
[7]; [16]
  DA RO %: 50%
[7]; mice, 20 mg/kg p.o.
  In vivo WIN binding time course: slow onset of DA transporter blockade in vivo
[7]; mouse, brain, po, mice, 3, 10 and 30 mg/kg p.o., 90 min post administration, read-out: Brain to plasma ratio
  Kp at 1.5 h: ~4
[7]; mouse, po, read-out: ED50 in WIN in vivo binding in mice
  ED50: 9.9 mg/kg
[8]; [15]
  NA RO %: <1.9%
[8]; [16]
  NA RO %: <17%
[8]; mouse, po
  ED50: > 50 mg/kg
[9]
  IC50: > 100 µM
[10]
  Ki: 0.155 µM
[10]; DAT, Human, 10 μM
  inhibition at 10 µM: 97%
[11]
  IC50: 3.5 µM
[12]; resting corpus cavernosum strips, 10^−9-3×10^−5 M
  Effect on resting tone: only small relaxations
[12]; strips contracted with phenylephrine (10^−6 M)
  Relaxation of contracted strips: concentration-dependent relaxations were observed at higher concentrations
